Measurements from article PMC8880564, “Design, Synthesis, and Biological Evaluation of a Novel VEGFR-2 Inhibitor Based on a 1,2,5-Oxadiazole-2-Oxide Scaffold with MAPK Signaling Pathway Inhibition” (Pharmaceuticals, 2022).
“And” between values parts separate entries of the source, which are not always exact repeats. Equal values may be shown once.

Columns and labels:
[1] = system: SKOV-3; assay: MTT cell viability assay; assay type: cell-based; conditions: Homo sapiens, SK-OV-3, Ovarian, 48 h, ± SD of triplicates
Procedure: In addition, the morphological changes in 12b-treated cancer cell lines at concentrations of 6.25 and 12.50 µM are shown in Figure 6.
According to the procedures of Skehan et al. (with minor modifications), the cancer or normal cells were seeded in a 96-well plate (100 µL/well). After overnight incubation at 37 °C and 5% CO2, the cells were incubated with 50 µM of each tested compound or DMSO (0.5% v/v). After 48 h of incubation, MTT (3-(4,5-dimethylthiazoyl)-2,5-diphenyl-tetrazolium bromide) 5 mg/mL Phosphate-Buffered Saline (PBS) was added, and the plate was incubated for 4 h. After that, acidified sodium dodecyl sulfate (SDS) solution (10% SDS containing 0.01N HCl in 1× PBS) was used to solubilize formazan crystals. The absorbance was measured after 14 h of incubation at λ570–630 nm by a Biotek plate reader (Gen5™).

[2] = system: normal human skin fibroblast cells (HSF); assay: Selectivity towards cancer cells, normal cells by MTT; assay type: cell-based; conditions: at a concentration as high as 50 µM, 48 h
Procedure: Furthermore, the selectivity index (SI) of compound 12b towards the various cancer cell lines was evaluated by detecting the required concentration to kill 50% of normal human skin fibroblast cells (HSF).
According to the procedures of Bézivin et al. (with minor modifications), the selectivity of compound 12b against cancer cell lines was evaluated by seeding human skin fibroblast cells (HSF) at 5 × 10^4 cells/mL in a 96-well plate and incubating them overnight at 37 °C and 5% CO2. On the second day, serial dilution of the compound 12b was added. After 48 h of incubation, the viability of HSF cells was determined by MTT assay as mentioned above and the selectivity index (SI) was calculated according to Equation (1):
Equation (1) Calculation of selectivity index. (1) SI=IC50 normal cells/IC50 cancer cell

[3] = system: HepG2 cells; assay: Apoptosis analysis, Annexin-V/PI flow cytometry; assay type: cell-based, human; conditions: HepG2, 5.5 or 11 µM, 24 h
Procedure: The mechanism of action of 12b was investigated by evaluating its effectiveness in modulating the cell cycle and induction of apoptosis.
Briefly, HepG2 cells (10^6 cells/mL) were treated either with 12b (5.5 or 11 µM) or with DMSO for 24 h, and then were collected after trypsinization and washed twice with 1× PBS. The induction of apoptosis was analyzed by staining cells with PE-Annexin-V [85] in the presence of PI and analyzed using the BD FACS Calibur Flow cytometer.

[4] = system: HepG2 cells; assay: Intracellular measurement of NO by DAF-FM diacetate flow cytometry; assay type: cell-based, human; conditions: HepG2, 11 µM, 1 h, DAF-FM DA; DMSO 0.1%
Procedure: The NO-releasing properties of 12b were evaluated by measuring the level of intracellular NO by flow cytometry, using a cell-permeable and photo-stable NO fluorescent indicator, 3-Amino-4-aminomethyl-2’,7’-difluorofluorescein diacetate (DAF-FM DA), with a detection limit of ~3 nM. DAF-FM diacetate penetrates the cells and is deacetylated by esterase enzyme to yield a non-fluorescent dye, DAF-FM, which, upon reaction with NO, produces a fluorescent benzotriazole product. Compound 12b was efficiently able to increase the production of NO in the treated cells (9.9% vs. 0.1% in DMSO-treated cells; Figure 9). Furthermore, compound 12b increased NO production as efficiently as the positive control reference drug JS-k.
HepG2 cells were collected, and the number was adjusted at 10^6 cells/test, and then they were stained with 5 µM DAF-FM™ diacetate (Invitrogen, Cat. No. D-23844) for 60 min at 37 °C and 5% CO2. After that, the stained cells were washed to remove the excess probe, and then were re-incubated for another 30 min. Following that, the stained cells were treated either with 12b (5.5 or 11 µM) or JS-K as a positive nitric oxide donor or DMSO as a negative control for another 1 h. The fluorescence was detected by flow cytometry using the FITC detection system in a BD flow Cytometer.

[5] = system: BCL-2; assay: Quantitative RT-PCR for gene expression in HepG2 cells; assay type: cell-based, human; conditions: HepG2, 12 h
Text: (§1) Epithelial cells express specific genes involved in maintaining apical–basal polarity and adherence, such as epithelial E-cadherin. The epithelial cells migrate to distant locations by over-expressing mesenchymal genes, including neuronal N-cadherin and vimentin [58]. Cancer aggressiveness has been positively correlated with the over-expression of N-cadherin. Therefore, in this study, the partial mechanism of activity of 12b was investigated, by quantitative RT-PCR, with respect to E-cadherin and N-cadherin. […] Additionally, the ability of 12b was confirmed by detecting the change in expression of both pro-apoptotic (Bax) and anti-apoptotic (BCL-2) genes. Compound 12b-treated HepG2 cells (for 12 h) expressed a low level of BCL-2 and over-expressed Bax (Figure 11A).
(§2) HepG2 cells were treated either with DMSO, 5.5 or 11 µM of 12b for 12 h, and then the total RNA was extracted by TRIzol™ Reagent (Invitrogen, Cat. No. 15596018). The RNA concentration and purity were evaluated using a Thermo Scientific™ NanoDrop™ One Microvolume UV-Vis Spectrophotometer. Four µg RNA was reverse transcribed to cDNA using the RevertAid First Strand cDNA Synthesis kit. The level of N-cadherin, E-cadherin, BCL-2, Bax, and GAPDH was detected using the SensiFAST™ SYBR® High-ROX Kit with the StepOne™ Real-Time PCR System (Applied Biosystems™). The expression level was firstly normalized to the level of GAPDH, then calculated as 2^−(ΔΔCt), where ΔCt 12b = (Ct […] Ct GAPDH); ΔCt DMSO = (Ct DMSO ™ Ct GAPDH); ΔΔCt = (ΔCt 12b ™ ΔCt DMSO). Ct is the cycle threshold.

[6] = system: Bax; assay: as above; assay type: cell-based, human; conditions: HepG2, 12 h
Text: as §1, §2

[7] = system: E-cadherin; assay: as above; assay type: cell-based, human; conditions: HepG2, 5.5 or 11 µM, 12 h
Text: as §1, §2

[8] = system: N-cadherin; assay: as above; assay type: cell-based, human; conditions: HepG2, 5.5 or 11 µM, 12 h
Text: as §1, §2

[9] = target: VEGFR-2 (Homo sapiens, UniProt P35968); assay: VEGFRx kinase assay (BPS Bioscience kit); conditions: VEGFR-2 inhibitory activity IC50, duplicate, luminescence kinase kit
VEGFR-2, sequence (P35968 789-1356 limits assumed): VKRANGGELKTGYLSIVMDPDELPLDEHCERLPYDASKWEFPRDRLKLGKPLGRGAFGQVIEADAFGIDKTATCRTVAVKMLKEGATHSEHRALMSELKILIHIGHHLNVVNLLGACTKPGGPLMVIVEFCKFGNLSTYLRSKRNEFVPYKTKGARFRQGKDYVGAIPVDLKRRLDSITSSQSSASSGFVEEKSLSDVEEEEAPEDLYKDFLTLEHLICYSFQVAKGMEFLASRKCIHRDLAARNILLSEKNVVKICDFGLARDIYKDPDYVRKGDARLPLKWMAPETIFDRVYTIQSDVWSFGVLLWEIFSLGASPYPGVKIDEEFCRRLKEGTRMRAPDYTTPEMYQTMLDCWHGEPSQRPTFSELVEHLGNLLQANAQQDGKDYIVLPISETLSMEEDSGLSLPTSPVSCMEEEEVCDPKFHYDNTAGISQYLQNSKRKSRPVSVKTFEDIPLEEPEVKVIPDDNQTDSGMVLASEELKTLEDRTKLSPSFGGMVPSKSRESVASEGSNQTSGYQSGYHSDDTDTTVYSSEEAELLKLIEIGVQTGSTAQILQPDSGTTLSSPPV
Procedure: The kinase assay was performed according to BPS Bioscience® kinase assay kit protocols [17, 74, 75, 76, 77]. […] The master mixture (25 μL) was added to every well then inhibitor solution of each well, labeled as “Test Inhibitor”, was added. For the “Positive Control” and “Blank”, the same solution without inhibitor (Inhibitor buffer) was added. To the wells designated as “Blank”, 1x Kinase Buffer 1 was added. FLT1/VEGFR2/FLT3 enzyme was thawed on ice and diluted with 1x Kinase Buffer 1 then added to the wells designated “Positive Control” and “Test Inhibitor Control”. The plate was incubated at 30 °C for 45 min then ADP-Glo reagent/Kinase-Glo Max reagent was added to each well. The plate was covered with aluminum foil and incubated at room temperature for 15 min. The luminescence was measured using the microplate reader. In case of FLT1 and FLT3, the plate was incubated for 45 min, then Kinase Detection reagent was added to each well and the plate was covered with aluminum foil and incubated at room temperature for another 45 min. The luminescence was measured immediately using the Tecan–spark® reader. A “Blank” value was subtracted from all readings.

[O-][n+]1onc(-c2ccccc2)c1CNc1ccc(Nc2nc(C(F)(F)F)nc3c2cnn3-c2ccc(Br)cc2)cc1 [12b, 3-(((4-((1-(4-bromophenyl)-6-(trifluoromethyl)-1H-pyrazolo[3,4-d]pyrimidin-4-yl)amino)phenyl)amino)methyl)-4-phenyl-1,2,5-oxadiazole 2-oxide]
IC50 [1]: 18600 ± 200 nM
morphological changes in HSF cells [2]: did not cause any morphological changes
induction of apoptosis [3]: induction of apoptotic pathways
intracellular NO production (P2) [4]: 9.9%
expression of BCL-2 [5]: low level
expression of Bax [6]: over-expressed
expression of epithelial E-cadherin [7]: increased expression
expression of neuronal N-cadherin [8]: lower expression
IC50 [9]: 92 nM and 90 nM
